Data on seven compounds can be found in patent US4994479A, “Phenylene derivatives and anti-allergic use thereof” (Yamanouchi Pharmaceutical Co., Ltd., priority 1985, dated 1991).

Test [1] relates to SRS-A-induced contractions of guinea-pig ileum. Put plainly: Inhibition of SRS-A-induced contractions of isolated guinea-pig ileum. Also on record: species or system guinea-pig (male Hartley). The note with it: for IC50: Cavia porcellus, 20 min, submaximal concentration of SRS-A, incubation 20 minutes; for anti-SRS-A activity: in words. The method, then: (§1) Male Hartley guinea- pigs, weighing 500 to 700 g were sacrificed by a blow on the head. The ileum and tracheal strips prepared according to the method of Constantine (1965) were suspended with 1.0 g tension in an organ bath containing 10 ml of Tyrode solution equilibrated with a mixture of 95% O2 and 5% CO2 at 37° C. The tissues were equilibrated for 60 minutes; during this period the Tyrode solution was replaced every 15 minutes and the loading tension was adjusted to 1.0 g. The developed tension of the tissues was measured isometrically with a strain gauge transducer, and recorded on a Recticorder. Both the contractile response of the ileum to submaximal concentration of SRS-A (derived from guinea-pig lung) and tracheal response to 10^-8 M LTD4 were recorded in the absence and then the presence of various concentrations of test compounds. The incubation time of the compounds was 20 minutes.

Test [2] deals with LTD4-induced contractions of guinea-pig trachea. Put plainly: Inhibition of LTD4-induced contractions of isolated guinea-pig trachea. Also on record: species or system guinea-pig (male Hartley). The note with it: for IC50: Cavia porcellus, 20 min, 10^-8 M LTD4, incubation 20 minutes; for inhibition of contractions induced by LTD4: in words. The method, then:
as §1

The test system of test [3] is LTD4-enhanced vascular permeability. The test is described as follows: Inhibition of LTD4-enhanced vascular permeability in guinea-pigs. The class given is in vivo, guinea-pig (male Hartley). The note with it: for ED50: Cavia porcellus, 30 minutes before intradermal 5 ng LTD4; for ED50 / inhibition of LTD4-enhanced vascular permeability: oral; for anti-Leukotriene effect by oral route / inhibition of LTD4-enhanced vascular permeability: in words; for inhibition of LTD4-enhanced vascular permeability: 30 minutes before LTD4. The method, then: Male Hartley guinea-pigs weighing 270 to 305, g starved for 16 hours, were intradermally injected with 5 ng LTD4 in a volume of 0.1 ml into two sites on the shaved back. In addition, 0.1 ml of vehicle was injected intradermally in each animal to see non-specific irritation. One ml of saline containing 1% Evans […] was intravenously injected 2 minutes before LTD4 injection. The leaked dye at the site of LTD4 or vehicle injection was extracted according to the method of Harada et al. (1971) and measured photometrically at 620 nm. The LTD4 -induced skin reaction was expressed as a difference in the amount of dye between LTD4 and vehicle. Test compounds were orally administered 30 minutes before LTD4 injection.

Structures are written as SMILES.

In the case of `CCOC(=O)CCc1ccccc1NC(=O)c1ccc(OCCCCc2ccccc2)cc1` [Example 10, Ethyl 3-[o-[p-(4-phenylbutoxy)benzamido]phenyl]propionate], in test [1], the midpoint of inhibition, the IC50, lay at 18 nM and the anti-SRS-A activity result was “potent anti-SRS-A activity”.
For `O=C(O)CCc1ccccc1NC(=O)c1ccc(OCCCCc2ccccc2)cc1` [Example 18, 3-[o-[p-(4-Phenylbutoxy)benzamido]phenyl]propionic acid], in test [1], the IC50 turned out to be 33 nM and the anti-SRS-A activity result was “potent anti-SRS-A activity”.
In the case of `CCCCCCCOc1cccc(C(=O)Nc2ccccc2OCc2nnn[nH]2)c1` [Example 23, 3-Heptyloxy-2'-(5-tetrazolylmethoxy)benzanilide], in test [2], the IC50 came to 400 nM and the “inhibition of contractions induced by LTD4” value (“inhibition … by LTD4” for short) is “inhibited the contractions induced by LTD4”. For the same compound, in test [1], 44 nM corresponded to half-maximal inhibition (IC50) and the anti-SRS-A activity result is given as “potent anti-SRS-A activity”. In test [3], the ED50 came to 22.8 mg/kg, the “anti-Leukotriene effect by oral route” value is “potent anti-Leukotriene effect” and the “inhibition of LTD4-enhanced vascular permeability” value was “dose-dependently inhibited”.
In the case of `Cc1ccc(OCC(=O)O)c(NC(=O)c2ccc(OCCCCc3ccccc3)cc2)c1` [Example 39, 4-methyl-2-[p-(4-phenylbutoxy)benzamido]phenoxyacetic acid], in test [2], the IC50 turned out to be 250 nM and the “inhibition … by LTD4” value was “inhibited the contractions induced by LTD4”. Further, in test [1], the IC50 amounted to 7.3 nM and the anti-SRS-A activity entry is “potent anti-SRS-A activity”. Also, in test [3], the ED50 is 36.1 mg/kg, the “anti-Leukotriene effect by oral route” value is “potent anti-Leukotriene effect” and the “inhibition of LTD4-enhanced vascular permeability” value is “dose-dependently inhibited”.
Turning to `O=C(O)COc1ccc(Cl)cc1NC(=O)c1ccc(OCCCCc2ccccc2)cc1` [Example 40, 4-Chloro-2-[p-(4-phenylbutoxy)benzamido]phenoxyacetic acid], in test [2], it took 57 nM to reach half-maximal inhibition (IC50) and the “inhibition … by LTD4” value is given as “inhibited the contractions induced by LTD4”. In addition, in test [1], half-maximal inhibition (IC50) required 3.6 nM and the anti-SRS-A activity entry is given as “potent anti-SRS-A activity”. Besides, in test [3], the ED50 was 5.5 mg/kg, the “anti-Leukotriene effect by oral route” value is “potent anti-Leukotriene effect” and the “inhibition of LTD4-enhanced vascular permeability” value is on record as “dose-dependently inhibited”.
Take `O=C(O)COc1ccc([N+](=O)[O-])cc1NC(=O)c1ccc(OCCCCc2ccccc2)cc1` [Example 41, 4-Nitro-2-[p-(4-phenylbutoxy)benzamido]phenoxyacetic acid]: in test [1], half-maximal inhibition (IC50) required 7.4 nM and the anti-SRS-A activity result is listed as “potent anti-SRS-A activity”.
In the same order, the values of `O=C(O)COc1ccccc1NC(=O)c1ccc(OCCCCc2ccccc2)cc1` [Example 42, o-[p-(4-Phenylbutoxy)benzamido]phenoxyacetic acid] are 81 nM and “potent anti-SRS-A activity”.

By IC50 is commonly meant the concentration at which inhibition is half-maximal. Higher therefore signals weaker potency. As a reminder, the ED50 is the dose at which the effect has come halfway, by size or by number of responders.
